Assay results taken from PubChem BioAssay AID2060892 (Molecular Pharmacology Branch, DTP, NCI, 2025).

Test system: HOP-62 complex spheroids with HUVEC/MSC, viability
Test: Anticancer human tumor HOP-62 cell line growth inhibition [RAS];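 also: spheroids exposed to agents for seven days before readout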;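 as to viability, T/C: 100% = DMSO vehicle control viability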
Details: for IC50: curve of first compound; for viability, T/C: stronger effect = lower value
Outline: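 Agents were tested in combination matrices in half-log decrements from a top concentration at or near clinical Cmax (10 microM if undetermined). Targets were multi-cell spheroids of tumour lines plus HUVEC and MSC stromal cells.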

## CCN1CCN(Cc2ccc(Nc3ncc(F)c(-c4cc(F)c5nc(C)n(C(C)C)c5c4)n3)nc2)CC1 + C=CC(=O)N1CCN(c2nc(OCC3CCCN3C)nc3c(F)c(-c4nc(N)cc(C)c4C(F)(F)F)c(Cl)cc23)C(C)C1
Second compound 0.00316 µM
  IC50: > 1 µM
Second compound 0.01 µM
  IC50: > 1 µM
Second compound 0.0316 µM
  IC50: 0.11 µM
Second compound 0.1 µM
  IC50: > 1 µM
Second compound 0.316 µM
  IC50: 0.613 µM
Second compound 1 µM
  IC50: > 1 µM
Second compound 0.00316 µM, first compound 0.00316 µM
  viability, T/C: 87.7%
Second compound 0.00316 µM, first compound 0.01 µM
  viability, T/C: 84.1%
Second compound 0.00316 µM, first compound 0.0316 µM
  viability, T/C: 69.2%
Second compound 0.00316 µM, first compound 0.1 µM
  viability, T/C: 73%
Second compound 0.00316 µM, first compound 0.316 µM
  viability, T/C: 64.8%
Second compound 0.00316 µM, first compound 1 µM
  viability, T/C: 55.5%
Second compound 0.01 µM, first compound 0.00316 µM
  viability, T/C: 71.5%
Second compound 0.01 µM, first compound 0.01 µM
  viability, T/C: 64.3%
Second compound 0.01 µM, first compound 0.0316 µM
  viability, T/C: 62.5%
Second compound 0.01 µM, first compound 0.1 µM
  viability, T/C: 55.9%
Second compound 0.01 µM, first compound 0.316 µM
  viability, T/C: 57.3%
Second compound 0.01 µM, first compound 1 µM
  viability, T/C: 48.8%
Second compound 0.0316 µM, first compound 0.00316 µM
  viability, T/C: 72.2%
Second compound 0.0316 µM, first compound 0.01 µM
  viability, T/C: 74.3%
Second compound 0.0316 µM, first compound 0.0316 µM
  viability, T/C: 59%
Second compound 0.0316 µM, first compound 0.1 µM
  viability, T/C: 52.8%
Second compound 0.0316 µM, first compound 0.316 µM
  viability, T/C: 47.6%
Second compound 0.0316 µM, first compound 1 µM
  viability, T/C: 46.9%
Second compound 0.1 µM, first compound 0.00316 µM
  viability, T/C: 69.7%
Second compound 0.1 µM, first compound 0.01 µM
  viability, T/C: 57.6%
Second compound 0.1 µM, first compound 0.0316 µM
  viability, T/C: 59.9%
Second compound 0.1 µM, first compound 0.1 µM
  viability, T/C: 51.3%
Second compound 0.1 µM, first compound 0.316 µM
  viability, T/C: 68.2%
Second compound 0.1 µM, first compound 1 µM
  viability, T/C: 45.2%
Second compound 0.316 µM, first compound 0.00316 µM
  viability, T/C: 69%
Second compound 0.316 µM, first compound 0.01 µM
  viability, T/C: 70.6%
Second compound 0.316 µM, first compound 0.0316 µM
  viability, T/C: 68.8%
Second compound 0.316 µM, first compound 0.1 µM
  viability, T/C: 50.2%
Second compound 0.316 µM, first compound 0.316 µM
  viability, T/C: 58%
Second compound 0.316 µM, first compound 1 µM
  viability, T/C: 46.8%
Second compound 1 µM, first compound 0.00316 µM
  viability, T/C: 66.7%
Second compound 1 µM, first compound 0.01 µM
  viability, T/C: 58.6%
Second compound 1 µM, first compound 0.0316 µM
  viability, T/C: 50.6%
Second compound 1 µM, first compound 0.1 µM
  viability, T/C: 59.9%
Second compound 1 µM, first compound 0.316 µM
  viability, T/C: 54.7%
Second compound 1 µM, first compound 1 µM
  viability, T/C: 47.1%
